Laboratory results reported in PubChem BioAssay (NCI).
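All cell lines were grown in 96-well plates and treated with compound for 48 hours. TGI: concentration producing complete growth inhibition.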

Tests used:
Assay in all cases: DTP human tumour cell line panel, 48 h
[1] = test system: CCRF-CEM leukemia
[2] = test system: UACC-62 melanoma
[3] = test system: T-47D breast
[4] = test system: NCI-H522 lung
[5] = test system: MOLT-4 leukemia
[6] = test system: HOP-92 NSCLC
[7] = test system: SW-620 colon
[8] = test system: RPMI-8226 leukemia
[9] = test system: NCI-H23 lung
[10] = test system: MDA-N
[11] = test system: SK-MEL-2 melanoma
[12] = test system: NCI/ADR-RES ovarian
[13] = test system: UO-31 renal
[14] = test system: SN12C renal
[15] = test system: NCI-H460 lung
[16] = test system: PC-3 prostate
[17] = test system: K-562 leukemia
[18] = test system: M14 melanoma
[19] = test system: A549 NSCLC
[20] = test system: HT29 colon
[21] = test system: OVCAR-4 ovarian
[22] = test system: SNB-19 CNS
[23] = test system: KM12 colon
[24] = test system: MCF7 breast
[25] = test system: BT-549 breast
[26] = test system: SNB-75 CNS
[27] = test system: IGROV1 ovarian
[28] = test system: HCT-15 colon
[29] = test system: COLO 205 colon
[30] = test system: SK-MEL-5 melanoma
[31] = test system: SK-MEL-28 melanoma
[32] = test system: SF-295 CNS
[33] = test system: RXF 393 renal
[34] = test system: MDA-MB-435
[35] = test system: HOP-62 NSCLC
[36] = test system: A498 renal
[37] = test system: ACHN renal
[38] = test system: SF-539 CNS
[39] = test system: EKVX NSCLC
[40] = test system: HCC-2998 colon
[41] = test system: DU-145 prostate
[42] = test system: HS 578T breast
[43] = test system: OVCAR-3 ovarian
[44] = test system: CAKI-1 renal
[45] = test system: HCT-116 colon
[46] = test system: HL-60(TB) leukemia
[47] = test system: MALME-3M melanoma
[48] = test system: OVCAR-5 ovarian
[49] = test system: UACC-257 melanoma
[50] = test system: 786-0 renal
[51] = test system: OVCAR-8 ovarian
[52] = test system: LOX IMVI melanoma
[53] = test system: NCI-H226 lung
[54] = test system: SR leukemia
[55] = test system: SF-268 CNS
[56] = test system: U251 CNS
[57] = test system: TK-10 renal
[58] = test system: MDA-MB-231 breast
[59] = test system: SK-OV-3 ovarian

COc1ccc(/C=C2\C[C@H]3[C@@H]4CC=C5C[C@@H](OC(C)=O)CC[C@]5(C)[C@H]4CC[C@]3(C)C2=O)cc1OC
TGI [1]: > 100 µM | TGI [2]: > 100 µM | TGI [3]: > 100 µM | TGI [4]: > 100 µM | TGI [5]: > 100 µM | TGI [6]: > 100 µM | TGI [7]: > 100 µM | TGI [8]: > 100 µM | TGI [9]: > 100 µM | TGI [10]: > 100 µM | TGI [11]: > 100 µM | TGI [12]: > 100 µM | TGI [13]: 35.9 µM | TGI [14]: > 100 µM | TGI [15]: > 100 µM | TGI [16]: > 100 µM | TGI [17]: > 100 µM | TGI [18]: > 100 µM | TGI [19]: > 100 µM | TGI [20]: > 100 µM | TGI [21]: > 100 µM | TGI [22]: > 100 µM | TGI [23]: > 100 µM | TGI [24]: > 100 µM | TGI [25]: > 100 µM | TGI [26]: > 100 µM | TGI [27]: > 100 µM | TGI [28]: > 100 µM | TGI [29]: > 100 µM | TGI [30]: 26.4 µM | TGI [31]: > 100 µM | TGI [32]: > 100 µM | TGI [33]: > 100 µM | TGI [34]: > 100 µM | TGI [35]: > 100 µM | TGI [36]: > 100 µM | TGI [37]: > 100 µM | TGI [38]: > 100 µM | TGI [39]: 66.5 µM | TGI [40]: > 100 µM | TGI [41]: > 100 µM | TGI [42]: > 100 µM | TGI [43]: > 100 µM | TGI [44]: > 100 µM | TGI [45]: > 100 µM | TGI [46]: 78.9 µM | TGI [47]: > 100 µM | TGI [48]: > 100 µM | TGI [49]: > 100 µM | TGI [50]: > 100 µM | TGI [51]: > 100 µM | TGI [52]: > 100 µM | TGI [53]: > 100 µM | TGI [54]: > 100 µM | TGI [55]: > 100 µM

COC(=O)CNC(=O)CNC(=O)CSc1nnc(COc2ccc(Cl)cc2)n1-c1ccccc1
TGI [56]: > 100 µM | TGI [1]: 57.4 µM | TGI [2]: 33.5 µM | TGI [4]: 31.8 µM | TGI [57]: > 100 µM | TGI [5]: > 100 µM | TGI [6]: 49.5 µM | TGI [7]: > 100 µM | TGI [8]: 78.1 µM | TGI [9]: > 100 µM | TGI [10]: 55.4 µM | TGI [11]: 43.9 µM | TGI [12]: > 100 µM | TGI [13]: 48.6 µM | TGI [14]: > 100 µM | TGI [15]: > 100 µM | TGI [16]: > 100 µM | TGI [17]: > 100 µM | TGI [18]: > 100 µM | TGI [58]: 39.2 µM | TGI [19]: > 100 µM | TGI [20]: > 100 µM | TGI [21]: > 100 µM | TGI [22]: > 100 µM | TGI [23]: 47.3 µM | TGI [24]: > 100 µM | TGI [25]: 58.8 µM | TGI [26]: 60.2 µM | TGI [27]: 39.4 µM | TGI [28]: > 100 µM | TGI [29]: > 100 µM | TGI [30]: 41 µM | TGI [31]: 56.3 µM | TGI [32]: > 100 µM | TGI [33]: 36.8 µM | TGI [34]: 34.5 µM | TGI [35]: > 100 µM | TGI [36]: > 100 µM | TGI [37]: > 100 µM | TGI [38]: > 100 µM | TGI [39]: > 100 µM | TGI [40]: > 100 µM | TGI [41]: > 100 µM | TGI [42]: 78.3 µM | TGI [43]: 37.6 µM | TGI [44]: 31.7 µM | TGI [45]: > 100 µM | TGI [47]: 35.3 µM | TGI [48]: > 100 µM | TGI [49]: 40.5 µM | TGI [50]: > 100 µM | TGI [51]: > 100 µM | TGI [52]: 57.7 µM | TGI [53]: > 100 µM | TGI [54]: 86.6 µM | TGI [55]: 51.6 µM

COc1ccc2nc3c(C)cc4ccccc4n3c2c1
TGI [56]: > 100 µM | TGI [1]: > 100 µM | TGI [2]: > 100 µM | TGI [3]: > 100 µM | TGI [57]: > 100 µM | TGI [5]: > 100 µM | TGI [6]: > 100 µM | TGI [7]: > 100 µM | TGI [8]: > 100 µM | TGI [9]: > 100 µM | TGI [59]: > 100 µM | TGI [10]: > 100 µM | TGI [12]: > 100 µM | TGI [13]: > 100 µM | TGI [14]: > 100 µM | TGI [15]: > 100 µM | TGI [16]: > 100 µM | TGI [17]: > 100 µM | TGI [18]: > 100 µM | TGI [19]: > 100 µM | TGI [20]: > 100 µM | TGI [22]: > 100 µM | TGI [23]: > 100 µM | TGI [24]: > 100 µM | TGI [25]: > 100 µM | TGI [26]: > 100 µM | TGI [27]: > 100 µM | TGI [28]: > 100 µM | TGI [30]: > 100 µM | TGI [31]: > 100 µM | TGI [32]: > 100 µM | TGI [33]: > 100 µM | TGI [34]: > 100 µM | TGI [35]: > 100 µM | TGI [36]: 65.4 µM | TGI [37]: > 100 µM | TGI [38]: > 100 µM | TGI [39]: > 100 µM | TGI [40]: > 100 µM | TGI [41]: > 100 µM | TGI [42]: 79.3 µM | TGI [43]: > 100 µM | TGI [45]: > 100 µM | TGI [46]: > 100 µM | TGI [47]: > 100 µM | TGI [48]: > 100 µM | TGI [49]: > 100 µM | TGI [50]: > 100 µM | TGI [51]: > 100 µM | TGI [53]: > 100 µM | TGI [54]: > 100 µM | TGI [55]: > 100 µM

Cc1ccc(N=NN(C)C(C)C(O)Cc2ccccc2)cc1 (stereo unspecified)
TGI [56]: > 100 µM | TGI [1]: > 100 µM | TGI [2]: > 100 µM | TGI [3]: 88.5 µM | TGI [57]: > 100 µM | TGI [5]: > 100 µM | TGI [7]: > 100 µM | TGI [8]: > 100 µM | TGI [9]: > 100 µM | TGI [59]: > 100 µM | TGI [10]: > 100 µM | TGI [11]: > 100 µM | TGI [12]: > 100 µM | TGI [13]: > 100 µM | TGI [14]: > 100 µM | TGI [15]: > 100 µM | TGI [16]: > 100 µM | TGI [17]: > 100 µM | TGI [18]: > 100 µM | TGI [58]: > 100 µM | TGI [19]: > 100 µM | TGI [20]: > 100 µM | TGI [21]: > 100 µM | TGI [22]: > 100 µM | TGI [23]: > 100 µM | TGI [24]: > 100 µM | TGI [25]: > 100 µM | TGI [26]: > 100 µM | TGI [27]: > 100 µM | TGI [28]: > 100 µM | TGI [29]: > 100 µM | TGI [30]: > 100 µM | TGI [31]: > 100 µM | TGI [32]: > 100 µM | TGI [33]: > 100 µM | TGI [34]: > 100 µM | TGI [35]: > 100 µM | TGI [37]: > 100 µM | TGI [39]: > 100 µM | TGI [40]: > 100 µM | TGI [41]: > 100 µM | TGI [42]: > 100 µM | TGI [43]: > 100 µM | TGI [44]: > 100 µM | TGI [45]: > 100 µM | TGI [46]: > 100 µM | TGI [47]: > 100 µM | TGI [48]: > 100 µM | TGI [49]: > 100 µM | TGI [50]: > 100 µM | TGI [51]: > 100 µM | TGI [53]: > 100 µM | TGI [55]: > 100 µM
